Measured values from the supplement of paper PMC10307832.

Experiments:
Experiment in all cases: relative viability (nuclei count vs DMSO), 5 days (fraction); higher = more cells survive
Masitinib + AZD7762 = compound: Cc1ccc(NC(=O)c2ccc(CN3CCN(C)CC3)cc2)cc1Nc1nc(-c2cccnc2)cs1 [Masitinib] + NC(=O)Nc1cc(-c2cccc(F)c2)sc1C(=O)N[C@H]1CCCNC1 [AZD7762] (partner 0.2 µM)
In short: (§1)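 Lung cancer cell lines were pin-tool dosed in 1536-well plates on the day after seeding, with either a lone drug or a fixed anchor-drug dose plus five library-drug doses (not always all listed) in √10 steps. Nuclei were counted on 4× images after 5 days. Relative viability is the ratio of treated-well to vehicle-well nuclei counts, with each value a median of duplicate plates.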

Masitinib + OSI-027 = compound: Cc1ccc(NC(=O)c2ccc(CN3CCN(C)CC3)cc2)cc1Nc1nc(-c2cccnc2)cs1 [Masitinib] + COc1cccc2cc(-c3nc([C@H]4CC[C@H](C(=O)O)CC4)n4ncnc(N)c34)[nH]c12 [OSI-027] (partner 0.5 µM)
In short: as §1

[1] = compound: CC1=CC(=CC=C1)NC2=NC(=CS2)C3=CC=NC=C3 + COc1cc2c(Oc3ccc(NC(=O)C4(C(=O)Nc5ccc(F)cc5)CC4)cc3F)ccnc2cc1OCCCN1CCOCC1 [Foretinib] (partner 0.25 µM)
In short: as §1

[2] = compound: CC1=CC(=CC=C1)NC2=NC(=CS2)C3=CC=NC=C3 + CS(=O)(=O)CCNCc1ccc(-c2ccc3ncnc(Nc4ccc(OCc5cccc(F)c5)c(Cl)c4)c3c2)o1 [Lapatinib] (partner 2 µM)
In short: as §1

Cell Line | relative viability (Masitinib + AZD7762; first compound 0.01 µM) | relative viability (Masitinib + AZD7762; first compound 0.03162 µM) | relative viability (Masitinib + AZD7762; first compound 0.1 µM) | relative viability (Masitinib + AZD7762; first compound 0.3162 µM) | relative viability (Masitinib + AZD7762; first compound 1 µM) | relative viability (Masitinib + OSI-027; first compound 0.01 µM) | relative viability (Masitinib + OSI-027; first compound 0.03162 µM) | relative viability (Masitinib + OSI-027; first compound 0.1 µM) | relative viability (Masitinib + OSI-027; first compound 1 µM) | relative viability ([1]; first compound 0.08 µM) | relative viability ([1]; first compound 0.8 µM) | relative viability ([1]; first compound 2.53 µM) | relative viability ([1]; first compound 8 µM) | relative viability ([2]; first compound 0.08 µM) | relative viability ([2]; first compound 0.253 µM) | relative viability ([2]; first compound 0.8 µM) | relative viability ([2]; first compound 2.53 µM) | relative viability ([2]; first compound 8 µM) | relative viability ([1]; first compound 0.253 µM) | relative viability (Masitinib + OSI-027; first compound 0.3162 µM)
201T | 0.516 | 0.7 | 0.528 | 0.64 | 0.573 | 0.792 | 0.534 | 0.745 | 0.729 | 0.835 | 0.939 | 0.759 | 0.871 | 0.982 | 0.956 | 0.97 | 0.767 | 0.752 | – | –
A549 | – | – | – | – | – | – | – | – | – | 0.882 | 0.871 | 0.866 | 0.802 | 0.863 | 0.893 | 0.898 | 0.891 | 0.809 | 0.914 | –
A-427 | 0.775 | 0.657 | 0.689 | 0.744 | 0.559 | – | 0.509 | – | 0.456 | 1.02 | 1.14 | 0.924 | 0.707 | 0.972 | 1.09 | 1.03 | – | 0.892 | 1.08 | 0.531
ABC-1 | 0.711 | 0.901 | 0.743 | 0.493 | 0.801 | 0.432 | 0.52 | 0.516 | 0.38 | 1.08 | 1.18 | 0.884 | 1.03 | 1.24 | 1.14 | 1.03 | 1.02 | 1.01 | 1.14 | 0.334
BEN | 0.849 | 0.64 | 0.882 | 0.607 | 0.77 | 0.306 | – | 0.325 | 0.436 | 0.615 | 0.624 | 0.392 | 0.629 | 0.733 | 0.62 | 0.498 | 0.669 | 0.741 | 0.435 | 0.26
CAL-12T | 0.586 | 0.639 | 0.606 | 0.605 | 0.498 | 0.682 | 0.554 | 0.705 | 0.536 | 1.2 | 1.04 | 1.09 | 0.899 | 0.534 | – | 0.649 | 0.608 | 0.678 | 1.08 | 0.404
COR-L23 | – | – | – | – | – | 0.893 | 0.737 | 0.776 | 0.738 | 0.986 | 0.886 | 0.864 | 0.87 | 0.709 | 0.878 | 0.651 | 1.07 | 0.881 | 0.945 | 0.751
COR-L 105 | – | – | – | – | – | 0.682 | 0.705 | 0.764 | 0.533 | 1.16 | 1.01 | 1.01 | 0.562 | 0.289 | 0.41 | 0.382 | 0.408 | 0.389 | 0.977 | 0.613
Calu-6 | – | – | – | – | – | – | – | – | – | 0.712 | 0.727 | 0.768 | 0.768 | 0.945 | 0.969 | 0.86 | 0.873 | 0.823 | 0.795 | –
ChaGo-K-1 | 0.928 | 0.916 | 0.946 | 0.823 | 0.806 | 0.779 | 0.537 | 0.603 | 0.538 | 0.977 | 0.931 | 0.902 | 0.85 | – | – | – | – | – | 0.938 | 0.695
EBC-1 | – | – | – | – | – | – | – | – | – | 0.0887 | 0.0911 | 0.117 | 0.114 | 0.202 | 0.238 | 0.204 | 0.206 | 0.167 | 0.103 | –
EKVX | 0.783 | 0.824 | 0.71 | – | 0.637 | – | 0.533 | 0.566 | 0.599 | 0.941 | 0.578 | 0.733 | 0.75 | 0.182 | 0.189 | 0.206 | 0.163 | 0.171 | 0.726 | 0.673
EMC-BAC-2 | 0.862 | 1.01 | 1.03 | 1.05 | 1.01 | 0.379 | 0.381 | 0.379 | 0.354 | 0.888 | 1 | 0.948 | 0.879 | 0.78 | 0.85 | 0.839 | 0.829 | 0.848 | 0.993 | 0.379
EPLC-272H | 0.245 | 0.206 | 0.211 | 0.258 | 0.161 | 0.257 | 0.274 | 0.281 | 0.286 | 0.657 | 0.623 | 0.597 | 0.723 | 0.831 | – | 0.867 | – | 0.908 | 0.711 | 0.315
H3255 | 0.581 | 0.948 | 0.764 | 0.705 | 0.885 | 0.588 | 0.652 | 0.617 | 0.538 | 0.895 | 0.909 | 0.822 | 0.875 | 0.225 | 0.325 | 0.203 | 0.195 | 0.211 | 0.464 | 0.504
HARA | 0.444 | 0.267 | 0.216 | – | 0.143 | – | 0.44 | 0.521 | 0.315 | 0.522 | 0.848 | 0.769 | 0.821 | 0.483 | 0.641 | 0.509 | 0.474 | 0.527 | 0.952 | 0.384
HCC-15 | 0.794 | 1.04 | 1.02 | 0.422 | 1.24 | 0.635 | 0.68 | 0.641 | 0.629 | 0.942 | 0.928 | 1.07 | 0.922 | 0.809 | 0.841 | 0.848 | 0.845 | 0.739 | 1.01 | 0.588
HCC-44 | 0.834 | 0.99 | 1.02 | 0.958 | 1.04 | 0.526 | 0.497 | 0.531 | 0.59 | – | – | – | – | 0.757 | 0.755 | 0.831 | 0.777 | 0.812 | – | 0.392
HCC-78 | 0.509 | 0.524 | 0.71 | 0.454 | 0.572 | 0.36 | 0.337 | 0.364 | 0.335 | – | 0.558 | 0.537 | 0.568 | 0.708 | 0.528 | 0.862 | 0.623 | 0.673 | 0.484 | 0.337
